Data published in article PMC9010562, “Designing a Novel Functional Peptide With Dual Antimicrobial and Anti-inflammatory Activities via in Silico Methods” (Frontiers in Immunology, 2022).
Ends that are not written are not given here.

Legend:
[1] = test system: Bacillus cereus KCCM 21366; assay type: cell-based; conditions: two-fold broth microdilution in MHB, 2×10^5 CFU/mL, 37°C, 18 h (24 h in the source), OD 600 nm; triplicate
From the text: (§1) Every strain used in the study was purchased from the Korean Culture Center of Microorganisms (KCCM, Seoul, Korea) or the American Type Culture Collection (ATCC, Manassas, VA, USA). The following bacterial strains were used in this study: Escherichia coli KCCM 11234 (E. coli), Pseudomonas aeruginosa ATCC 9027 (P. aeruginosa), Bacillus cereus KCCM 21366 (B. cereus), Staphylococcus aureus KCCM 11335 (S. aureus), and methicillin-resistant S. aureus ATCC 33591 (MRSA). Bacterial strains were maintained in tryptic soy broth (TSB, Difco Laboratories, Detroit, MI, USA) and cultured under shaking incubation at 37°C. In addition, the following human cell lines were used in this study: THP-1 monocytes (ATCC TIB-202), primary adipose-derived mesenchymal stem cell (hADMSC; CEFO Co., Seoul, Korea), normal bronchial epithelial cells BEAS-2B (ATCC CRL-9609), and lung carcinoma cells H460 (ATCC HTB-177). THP-1 and H460 cells were cultured in RPMI 1640 medium (Welgene Inc., Gyeongsan, Gyeongsangbuk-do, Korea) supplemented with 10% fetal bovine serum (Gibco), 1% penicillin and streptomycin (Gibco), and sodium pyruvate (Welgene Inc.). hADMSC and BEAS-2B cells were cultured in CEFOgro™ Human MSC Growth Medium (CEFO Co.) and BEGM™ Bronchial Epithelial Cell Growth Medium BulletKit™ (Lonza, Basel, Switzerland), respectively. The cells were maintained under humidified air with 5% CO2 at 37°C.
(§2) Two-fold broth microdilution assays were performed to measure the MIC values of the peptides. In brief, the strains were grown to an exponential phase in MHB at 37°C and then diluted to reach 2×10^5 CFU/mL in fresh media. Peptides were serially diluted in PBS and then added of 50 μL/well to a 96-well plate. An equal volume of bacterial suspensions was added to each well, resulting in final concentrations of peptides ranging from 1 to 32 μM. The wells only with the medium served as blank, while adding the medium to inoculant was used as control. The plates were incubated at 37°C for 18 h, and the bacterial growth was measured at 600 nm using a microplate reader (Molecular Devices, Sunnyvale, CA, USA). […] To perform colony forming assay, different concentrations of peptides were mixed with an equal volume of bacterial suspensions, resulting in 2×10^5 CFU/mL. The samples were spread onto tryptic soy agar (TSA, Difco Laboratories) plates after 3 h incubation and incubated overnight at 37°C. Relative colony formation was measured by counting colonies formed on agar plates, and was compared with the control plate for the relative expression.

[2] = test system: Escherichia coli KCCM 11234; assay type: cell-based; conditions: two-fold broth microdilution in MHB, 2×10^5 CFU/mL, 37°C, 18 h (24 h in the source), OD 600 nm; triplicate
From the text: as §1, §2

[3] = test system: Pseudomonas aeruginosa ATCC 9027; assay type: cell-based; conditions: two-fold broth microdilution in MHB, 2×10^5 CFU/mL, 37°C, 18 h (24 h in the source), OD 600 nm; triplicate
From the text: as §1, §2

[4] = test system: Staphylococcus aureus KCCM 11335; assay type: cell-based; conditions: two-fold broth microdilution in MHB, 2×10^5 CFU/mL, 37°C, 18 h (24 h in the source), OD 600 nm; triplicate
From the text: as §1, §2

[5] = test system: methicillin-resistant S. aureus ATCC 33591 (MRSA); assay type: cell-based, Staphylococcus aureus; conditions: two-fold broth microdilution in MHB, 2×10^5 CFU/mL, 37°C, 18 h (24 h in the source), OD 600 nm; triplicate
From the text: as §1, with “THP-1 and H460 cells were cultured in RPMI 1640 medium (Welgene Inc., Gyeongsan, Gyeongsangbuk-do, Korea) supplemented with 10% fetal bovine serum (Gibco), 1% penicillin and streptomycin (Gibco), and sodium pyruvate (Welgene Inc.). hADMSC and BEAS-2B cells were cultured in CEFOgro™ Human MSC Growth Medium (CEFO Co.) and BEGM™ Bronchial Epithelial Cell Growth Medium BulletKit™ (Lonza, Basel, Switzerland), respectively. The cells were maintained under humidified air with 5% CO2 at 37°C.” left out
Two-fold broth microdilution assays were performed to measure the MIC values of the peptides. […] The plates were incubated at 37°C for 18 h, and the bacterial growth was measured at 600 nm using a microplate reader (Molecular Devices, Sunnyvale, CA, USA). […] Relative colony formation was measured by counting colonies formed on agar plates, and was compared with the control plate for the relative expression.

BEAS-2B cells = test: WST-8 cell viability assay; assay type: cell-based, human; conditions: WST-8, 24 h treatment
From the text: as §1
(§3) THP-1, hADMSC, BEAS-2B, and H460 cells were seeded in 96-well plates at a density of 1×10^5 cells/mL to evaluate the cytotoxic effect of the peptides. Different concentrations of peptide were treated and incubated for 24 h. Quanti-Max WST-8 Cell Viability assay solution (Biomax, Seoul, Korea) was added to each well, and then the plate was incubated for 1 h. The absorbance was read at 450 nm using a microplate reader (Molecular Devices), and the relative cell viability was calculated.

H460 cells = test: WST-8 cell viability assay; assay type: cell-based, human; conditions: WST-8, 24 h treatment
From the text: as §1, §3

THP-1 cells = test: WST-8 cell viability assay; assay type: cell-based, human; conditions: WST-8, 24 h treatment
From the text: as §1, §3

hADMSC cells = test: WST-8 cell viability assay; assay type: cell-based, human; conditions: WST-8, 24 h treatment
From the text: as §1, §3

bovine red blood cells = test: Hemolytic activity; assay type: cell-based; conditions: bovine RBCs 4% (v/v) in PBS, peptide up to 50 μM, 37°C 1 h, relative to 0.1% Triton X-100 (100%), absorbance 450 nm
Protocol: The hemolytic activity of the peptide was tested using bovine red blood cells (RBCs) purchased from Innovative Research (Novi, MI, USA). RBCs were diluted in PBS to obtain a 4% (v/v) suspension and were aliquoted at 100 μL per microtube. The RBC suspensions were mixed with an equal volume of 2-fold peptides and incubated at 37°C for 1 h. PBS and 0.1% Triton X-100 served as the negative control (0% hemolysis) and positive control (100% hemolysis), respectively. The tubes were centrifuged at 3,000 × g for 10 min at 4°C, and the supernatants were transferred to a 96-well microplate. The absorbance (Ab) was measured at 450 nm using a microplate reader (Molecular Devices). The hemolytic activity of each peptide was calculated by (Abpeptide – AbPBS)/(AbTriton X-100 – AbPBS) × 100.

[6] = Serum stability test (SDS-PAGE); assay type: in vitro ADME; conditions: 25 μg peptide in 20 μL with 10% human serum (also 2%, 5%), 37°C, 12 h (also 1, 4 h); SDS-PAGE 12% gel, Coomassie staining
Protocol: Peptide stability in human serum (HS, Sigma-Aldrich) was tested by sodium dodecyl sulfate-polyacrylamide gel electrophoresis (SDS-PAGE) ([25]). 25 μg of peptides were incubated with 2%, 5%, and 10% of HS in a total volume of 20μL. The samples, peptide control, HS controls were incubated at 37°C for 1, 4, 12 h and were mixed with 5 × protein sample buffer. The samples were loaded in 12% SDS gel along with Prosi prestained protein marker (GenDEPOT, Katy, TX, USA). After separation, gels were stained with Coomassie Brilliant Blue R-250 staining solution (Bio-Rad, Hercules, CA, USA). Gels were destained and imaged by ChemiDoc™ Imaging Systems (Bio-Rad).

Sequence | MIC B. cereus [1] [µM] | MIC E. coli [2] [µM] | MIC P. aeruginosa [3] [µM] | MIC S. aureus [4] [µM] | MIC MRSA [5] [µM] | Concentration from which a significant cytotoxic effect was seen, BEAS-2B (normal cell line) (BEAS-2B cells) [nM] | Concentration from which cell viability was significantly affected, H460 (H460 cells) [nM] | Concentration from which a significant cytotoxic effect was seen, THP-1 (THP-1 cells) [nM] | Concentration from which a significant cytotoxic effect was seen, hADMSC (primary cell line) (hADMSC cells) [nM] | Hemolysis (bovine red blood cells) | Stability in human serum [6] | Concentration up to which cell viability was not affected, BEAS-2B (BEAS-2B cells) [nM] | Concentration up to which cell viability was not affected, H460 (H460 cells) [nM] | Concentration up to which cell viability was not affected, THP-1 (THP-1 cells) [nM] | Concentration up to which cell viability was not affected, hADMSC (hADMSC cells) [nM]
FKGLAKLLKIGLKALAKVIQ [Ak-N’] | 4 | 2 | 2 | 0.2 | 2 | 2000 | 500 | 5000 | 2000 | over 50% | exhibited stability |  |  |  | 
NKGLAKLLKIGLKALESVIQ [Ak-N’m] | 32 | 2 | 8 | 8 | 32 |  |  |  |  | below 5% | exhibited stability | 2000 | 2000 | 10000 | 2000
